Experimental data taken from publication PMC4774911, “Biochemical Screening of Five Protein Kinases from Plasmodium falciparum against 14,000 Cell-Active Compounds” (PLoS ONE, 2016).
“And” between values parts separate entries of the source, which are not always exact repeats. Equal values may be shown once.

Assays:
Assay in all cases: biochemical
Set-up in all cases: endogenous in cells; host or cells: K562 cell extract; species or system K562 (extract); replicate k of n = 2 (each experiment ID is one independent experiment; two experiment IDs per compound)
Conditions in all cases: read-out: KDapp
[1] = target: JAK2 (Homo sapiens, UniProt O60674)
[2] = target: MAP3K1 (Homo sapiens, UniProt Q13233)
[3] = target: CDK6 (Homo sapiens, UniProt Q00534)
[4] = target: T1, ACVR1 (Homo sapiens, UniProt Q04771)
T1 sequence (Q04771 1-509): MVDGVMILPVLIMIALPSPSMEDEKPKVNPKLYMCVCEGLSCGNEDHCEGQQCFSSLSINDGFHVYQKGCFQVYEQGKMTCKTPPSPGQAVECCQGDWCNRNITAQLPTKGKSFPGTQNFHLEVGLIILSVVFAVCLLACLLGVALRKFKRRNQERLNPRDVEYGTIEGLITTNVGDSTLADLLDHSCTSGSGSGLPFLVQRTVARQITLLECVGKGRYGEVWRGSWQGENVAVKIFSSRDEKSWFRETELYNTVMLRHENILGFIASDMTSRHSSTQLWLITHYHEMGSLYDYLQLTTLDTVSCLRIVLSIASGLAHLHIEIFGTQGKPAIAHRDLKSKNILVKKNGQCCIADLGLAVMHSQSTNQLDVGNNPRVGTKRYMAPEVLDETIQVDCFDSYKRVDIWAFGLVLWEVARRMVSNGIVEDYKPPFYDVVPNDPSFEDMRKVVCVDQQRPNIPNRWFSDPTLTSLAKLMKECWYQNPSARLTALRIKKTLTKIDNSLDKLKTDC

[5] = target: T2, PKMYT1 (Homo sapiens, UniProt Q99640)
T2 sequence (Q99640 1-499): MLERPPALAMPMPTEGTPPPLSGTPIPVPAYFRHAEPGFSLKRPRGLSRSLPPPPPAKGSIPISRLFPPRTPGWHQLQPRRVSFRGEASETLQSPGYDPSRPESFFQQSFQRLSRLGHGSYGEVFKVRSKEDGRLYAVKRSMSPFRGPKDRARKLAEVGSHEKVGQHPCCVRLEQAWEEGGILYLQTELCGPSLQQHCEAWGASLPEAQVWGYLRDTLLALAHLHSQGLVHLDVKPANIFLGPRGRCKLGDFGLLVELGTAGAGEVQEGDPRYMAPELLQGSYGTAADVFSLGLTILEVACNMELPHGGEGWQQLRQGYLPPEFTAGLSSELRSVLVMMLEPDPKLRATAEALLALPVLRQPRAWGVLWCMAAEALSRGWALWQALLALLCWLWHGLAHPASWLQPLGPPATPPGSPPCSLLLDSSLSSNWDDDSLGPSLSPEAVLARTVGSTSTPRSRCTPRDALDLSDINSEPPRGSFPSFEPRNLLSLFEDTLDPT

CDK6, sequence (Q00534 whole entry): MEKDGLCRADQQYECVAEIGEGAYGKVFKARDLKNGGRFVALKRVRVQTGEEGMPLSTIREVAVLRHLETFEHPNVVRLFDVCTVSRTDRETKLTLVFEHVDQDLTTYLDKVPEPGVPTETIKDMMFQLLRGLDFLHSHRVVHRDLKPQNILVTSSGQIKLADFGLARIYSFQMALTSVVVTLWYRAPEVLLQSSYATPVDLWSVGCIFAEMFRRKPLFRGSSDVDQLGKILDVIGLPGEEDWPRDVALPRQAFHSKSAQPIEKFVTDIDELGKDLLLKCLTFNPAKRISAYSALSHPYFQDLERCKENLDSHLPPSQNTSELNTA
JAK2, sequence (O60674 whole entry): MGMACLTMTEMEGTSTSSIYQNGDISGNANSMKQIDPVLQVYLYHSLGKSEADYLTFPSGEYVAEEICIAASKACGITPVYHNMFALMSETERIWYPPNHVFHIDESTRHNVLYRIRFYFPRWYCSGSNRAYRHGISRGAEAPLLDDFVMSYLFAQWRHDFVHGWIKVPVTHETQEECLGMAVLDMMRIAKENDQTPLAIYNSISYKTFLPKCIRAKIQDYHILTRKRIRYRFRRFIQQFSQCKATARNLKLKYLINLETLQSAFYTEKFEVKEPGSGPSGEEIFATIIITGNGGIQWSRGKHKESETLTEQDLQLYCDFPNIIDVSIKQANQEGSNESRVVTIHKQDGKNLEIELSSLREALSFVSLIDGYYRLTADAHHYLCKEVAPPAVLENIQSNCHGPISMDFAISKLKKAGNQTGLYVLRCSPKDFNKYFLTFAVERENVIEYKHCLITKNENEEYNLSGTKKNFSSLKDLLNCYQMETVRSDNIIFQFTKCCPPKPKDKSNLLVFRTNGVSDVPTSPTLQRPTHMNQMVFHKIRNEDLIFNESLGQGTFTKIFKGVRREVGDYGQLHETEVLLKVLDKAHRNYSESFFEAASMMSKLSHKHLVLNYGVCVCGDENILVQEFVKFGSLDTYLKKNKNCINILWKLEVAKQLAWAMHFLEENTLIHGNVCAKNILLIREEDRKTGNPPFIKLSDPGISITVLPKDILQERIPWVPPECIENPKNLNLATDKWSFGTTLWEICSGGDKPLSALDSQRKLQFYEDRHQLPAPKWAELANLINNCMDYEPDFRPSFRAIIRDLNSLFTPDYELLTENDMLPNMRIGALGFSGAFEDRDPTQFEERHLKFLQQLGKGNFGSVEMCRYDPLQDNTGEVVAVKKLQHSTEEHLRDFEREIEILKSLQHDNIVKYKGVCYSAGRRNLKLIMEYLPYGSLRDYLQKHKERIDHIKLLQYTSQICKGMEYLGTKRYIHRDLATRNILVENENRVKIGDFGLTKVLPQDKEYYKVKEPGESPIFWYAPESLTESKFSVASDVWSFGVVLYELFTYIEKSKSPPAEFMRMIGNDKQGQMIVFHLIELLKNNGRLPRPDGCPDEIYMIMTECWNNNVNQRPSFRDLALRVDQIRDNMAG
MAP3K1, sequence (Q13233 whole entry): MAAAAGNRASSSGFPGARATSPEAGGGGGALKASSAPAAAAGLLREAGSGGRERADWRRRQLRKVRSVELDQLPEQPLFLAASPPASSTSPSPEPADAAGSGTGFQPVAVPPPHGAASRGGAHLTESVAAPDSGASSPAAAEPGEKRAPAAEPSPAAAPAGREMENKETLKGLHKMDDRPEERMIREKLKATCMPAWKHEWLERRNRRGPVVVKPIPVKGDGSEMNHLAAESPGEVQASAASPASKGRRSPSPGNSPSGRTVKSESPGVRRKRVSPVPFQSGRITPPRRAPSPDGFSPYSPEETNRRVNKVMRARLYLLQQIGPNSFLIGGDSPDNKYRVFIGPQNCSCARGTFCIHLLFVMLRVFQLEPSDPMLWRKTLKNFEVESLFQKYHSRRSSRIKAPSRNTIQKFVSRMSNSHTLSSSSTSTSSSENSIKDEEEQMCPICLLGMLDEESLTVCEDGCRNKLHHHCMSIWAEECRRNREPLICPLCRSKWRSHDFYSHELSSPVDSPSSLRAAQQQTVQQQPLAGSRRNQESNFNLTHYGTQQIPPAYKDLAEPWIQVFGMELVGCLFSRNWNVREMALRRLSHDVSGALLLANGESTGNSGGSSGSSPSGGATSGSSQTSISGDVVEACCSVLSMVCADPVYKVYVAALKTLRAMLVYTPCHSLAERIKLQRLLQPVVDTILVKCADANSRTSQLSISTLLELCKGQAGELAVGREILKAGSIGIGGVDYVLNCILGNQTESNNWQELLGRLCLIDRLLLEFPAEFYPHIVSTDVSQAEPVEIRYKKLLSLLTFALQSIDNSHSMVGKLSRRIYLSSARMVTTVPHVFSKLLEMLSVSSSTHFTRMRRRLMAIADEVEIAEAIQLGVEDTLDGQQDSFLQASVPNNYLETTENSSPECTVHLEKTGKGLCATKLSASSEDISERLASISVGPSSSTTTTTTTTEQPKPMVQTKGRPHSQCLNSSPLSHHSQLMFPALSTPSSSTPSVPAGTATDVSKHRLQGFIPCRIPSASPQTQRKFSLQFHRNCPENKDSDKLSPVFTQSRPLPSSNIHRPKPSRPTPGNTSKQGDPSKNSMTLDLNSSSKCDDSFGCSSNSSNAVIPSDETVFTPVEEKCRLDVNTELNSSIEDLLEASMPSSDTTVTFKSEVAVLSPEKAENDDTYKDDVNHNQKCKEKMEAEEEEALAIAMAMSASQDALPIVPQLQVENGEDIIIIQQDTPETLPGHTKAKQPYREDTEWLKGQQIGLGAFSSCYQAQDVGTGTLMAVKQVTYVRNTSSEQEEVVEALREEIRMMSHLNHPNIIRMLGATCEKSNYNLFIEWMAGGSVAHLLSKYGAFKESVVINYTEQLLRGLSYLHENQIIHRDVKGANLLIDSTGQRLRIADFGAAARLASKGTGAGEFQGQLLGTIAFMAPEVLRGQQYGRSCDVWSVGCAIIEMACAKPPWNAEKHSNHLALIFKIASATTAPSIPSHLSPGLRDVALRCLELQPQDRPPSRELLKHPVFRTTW

CN1CCN(c2ccc(Nc3ncc(C#N)c(Nc4ccccc4C(N)=O)n3)cc2)CC1.Cl [TCMDC-134116]
Kd [1]: 285 nM and 185 nM | Kd [2]: 681 nM | Kd [3]: 133 nM and 150 nM | Kd [4]: 2200 nM | Kd [5]: 888 nM and 596 nM
